Reference: patent US20110287100A1, “Galenic Formulations of Organic Compounds” (priority 2009, published 2011)
Where two headings read alike, the source gives them in different places.

Tests used:
[1] = Pharmacokinetics in pediatric patients, open label multiple dose study; details: human, in vivo; for AUC: read-out: AUCtau, Mean; for Tmax: read-out: Tmax, Median; for half-life: read-out: T½, Mean (converted)
Description: An open label, multiple dose pharmacokinetic and pharmacodynamic study was performed in 24 pediatric patients, ages 6-17 years. […] Blood samples were collected on days one and eight and pharmacokinetics were assessed using a non-compartmental analysis approach.

Water solubility = format: physicochemical; details: between pH 1 and 8
[2] = 2 mg/kg, 6-11 yrs old, 2 mg/kg, Day 1
[3] = 2 mg/kg, 6-11 yrs old, 2 mg/kg, Day 8
[4] = 2 mg/kg, 12-17 yrs old, 2 mg/kg, Day 1
[5] = 2 mg/kg, 12-17 yrs old, 2 mg/kg, Day 8
[6] = 6 mg/kg, 6-11 yrs old, 6 mg/kg, Day 1
[7] = 6 mg/kg, 6-11 yrs old, 6 mg/kg, Day 8
[8] = 6 mg/kg, 12-17 yrs old, 6 mg/kg, Day 1
[9] = 6 mg/kg, 12-17 yrs old, 6 mg/kg, Day 8

**Q.** Which Cmax [1, 2] does the source give for `COCCCOc1cc(C[C@@H](C[C@H](N)[C@@H](O)C[C@H](C(=O)NCC(C)(C)C(N)=O)C(C)C)C(C)C)ccc1OC` [Aliskiren, 2(S),4(S),5(S),7(S)—N-(3-amino-2,2-dimethyl-3-oxopropyl)-2,7-di(1-methylethyl)-4-hydroxy-5-amino-8-[4-methoxy-3-(3-methoxy-propoxy)phenyl]-octanamide] here?
**A.** 39 ng/mL

**Q.** And the AUC [1, 2]?
**A.** 149 ng·h/mL

**Q.** What about the Tmax [1, 2] of the same compound?
**A.** 0.5 h

**Q.** What about the Cmax [1, 3] of the same compound?
**A.** 48 ng/mL

**Q.** What about the AUC [1, 3] of the same compound?
**A.** 240 ng·h/mL

**Q.** And the Tmax [1, 3]?
**A.** 0.5 h

**Q.** And the half-life [1, 3]?
**A.** 40 h

**Q.** What about the Cmax [1, 4] of the same compound?
**A.** 136 ng/mL

**Q.** And the AUC [1, 4]?
**A.** 391 ng·h/mL

**Q.** And the Tmax [1, 4]?
**A.** 1 h

**Q.** And the Cmax [1, 5]?
**A.** 279 ng/mL

**Q.** What about the AUC [1, 5] of the same compound?
**A.** 846 ng·h/mL

**Q.** And the Tmax [1, 5]?
**A.** 1 h

**Q.** And the half-life [1, 5]?
**A.** 40 h

**Q.** What about the Cmax [1, 6] of the same compound?
**A.** 323 ng/mL

**Q.** What about the AUC [1, 6] of the same compound?
**A.** 1840 ng·h/mL

**Q.** And the Tmax [1, 6]?
**A.** 1.3 h

**Q.** And the Cmax [1, 7]?
**A.** 259 ng/mL

**Q.** What about the AUC [1, 7] of the same compound?
**A.** 956 ng·h/mL

**Q.** What about the Tmax [1, 7] of the same compound?
**A.** 0.8 h

**Q.** And the half-life [1, 7]?
**A.** 36 h

**Q.** What about the Cmax [1, 8] of the same compound?
**A.** 424 ng/mL

**Q.** And the AUC [1, 8]?
**A.** 1800 ng·h/mL

**Q.** And the Tmax [1, 8]?
**A.** 1.8 h

**Q.** What about the Cmax [1, 9] of the same compound?
**A.** 486 ng/mL

**Q.** And the AUC [1, 9]?
**A.** 2090 ng·h/mL

**Q.** And the Tmax [1, 9]?
**A.** 2 h

**Q.** What about the half-life [1, 9] of the same compound?
**A.** 42 h

**Q.** And the solubility (Water solubility)?
**A.** > 350 mg/mL
